In patent US4347176A, “Compounds and methods of making same” (Burroughs Wellcome Co., priority 1980, dated 1982):

Assays:
[1] = system: antisera raised by presenting a suitable bupropion variant-carrier material conjugate to the immune system of host animals; experiment: competition of bupropion with radiolabeled competitor for binding to antisera; parameters: species or system rabbit
Description: (§1) Samples of six standard solutions of bupropion in blank plasma having concentrations of 0.39 to 50 ng/ml) are pipetted (0.1 ml each) in duplicate into 12×75 mm plastic tubes. Duplicate non-specific binding (no antibody) and maximum binding tubes (no unlabeled bupropion) receive 0.1 ml blank plasma. Spiked plasma controls at several concentrations of (e.g., 1.0, 10.0, and 100 ng/ml) and plasma samples for assay (diluted into the standard range with blank plasma if necessary) are assayed in duplicate. After being placed in an ice bath, all tubes receive (in order) 0.2 ml ^3 H bupropion (416 pg. containing approximately 10^4 cpm) and 0.7 ml anti-bupropion serum (raised to a ring-functionalized immunogen according to the present invention) (at pre-determined dilutions such that approximately 40% of the ^3 H bupropion added is bound), both in assay buffer (0.05 M phosphate-bufferedisotonic saline, containing 0.01 M EDTA and 0.1% gelatin, pH 7.0). […] The supernatants, containing antibody-bound ^3 H bupropion are carefully decanted into liquid scintillation cocktail for quantitation of ^3 H. After counts (minus average nonspecific binding cpm) are expressed as percentages of average maximum binding cpm, bupropion concentrations in plasma samples and spiked controls are read from a standard curve (log concentration vs percent average maximum binding).

anti-compound 1 sera = experiment: RIA of bupropion using 125I-labeled competitor with anti-compound 1 sera: sensitivity; assay type: binding, rabbit (preferred host animal); settings: in conjunction with anti-compound 1 sera; compared with the other iodinated competitors, FIG. 2
Description: as §1, with “binding). […]” for “binding).”

[2] = system: anti-compound 2 sera, and anti-compound 3 sera; experiment: RIA of bupropion using 125I-labeled competitors with anti-compound 2 sera and anti-compound 3 sera: sensitivity; assay type: binding, rabbit (preferred host animal); settings: with either anti-compound 2 or anti-compound 3 sera; standard curves, FIG. 2
Description: as §1, with “7.0). Non-specific binding tubes receive 0.7 ml assay buffer.) Following incubation either at 25° C. for 2 hours or overnight at 4° C., bound and free ^3 H bupropion are separated by incubation for 10 min at 0° C. with 0.5 ml ice-cold dextran-coated charcoal solution (0.25% dextran, 5 mg/ml charcoal, in assay buffer) followed by centrifugation for 10 minutes at 4° C.” for “7.0).”
RIA's have been run according to the method of Example X utilizing ^125 I labeled bupropion competitors of the present invention in conjunction with antisera obtained following immunization with immunogens of the present invention. […] Following the ethanol precipitation of antibody-bound ^125 I-bupropion competitor at equilibrium, ^125 I in the protein pellets was quantified.

SMILES: CC(NC(C)(C)C)C(=O)c1cccc(Cl)c1 (racemic) [bupropion, (±)-2-tert-butylamino-3'-chloropropiophenone]
- competition with radiolabeled bupropion or competitor for binding to antisera [1]: successfully compete

SMILES: CC(NC(C)(C)C)C(=NOCC(=O)NCCc1ccc(O)c([125I])c1)c1cccc(Cl)c1 (stereo not drawn) [Compound 6, α-t-Butylamino-3-chloropropiophenone-carboxymethyloxime-^125 I-tyramine amide]
- RIA sensitivity (anti-compound 1 sera): least sensitive RIA

SMILES: CC(NC(C)(C)C)C(=O)c1ccc(CCCOC(=O)CCC(=O)NCCc2ccc(O)c([125I])c2)c(Cl)c1 (stereo not drawn) [Compound 8, α-t-butylamino-3-chloro-4-γ-hydroxypropylpropiophenonehemisuccinate-^125 I-tyramine amide]
- RIA sensitivity relative to the compound 10 (3H bupropion) assay system [2]: sensitivity approximately equal

SMILES: CC(NC(C)(C)C)C(=O)c1ccc(OCC(=O)NCCc2ccc(O)c([125I])c2)c(Cl)c1 (stereo not drawn) [Compound 7, α-t-Butylamino-3-chloro-4-carbomethoxypropiophenone-^125 I-tyramine amide]
- RIA sensitivity relative to the compound 10 (3H bupropion) assay system [2]: sensitivity approximately equal

SMILES: CC(NC(C)(C)C)C(=O)c1ccc(O)c([125I])c1 (stereo not drawn) [Compound 9, ^125 I-α-t-Butylamino-3-iodo-4-hydroxypropiophenone]
- RIA sensitivity relative to the compound 10 (3H bupropion) assay system [2]: approximately ten times more sensitive
